Measurements reported in ChEMBL document CHEMBL1800066 (J Med Chem, 2011).
In brackets after ≈: the same amount, converted by molar mass. Blank lines part the entries; values can stand above or below the compound they belong to.

How the values were obtained:
[1] = Antiproliferative activity against human GTL16 cells after 72 hrs; conditions: GTL 16, 72 h
[2] = target: Voltage-gated inwardly rectifying potassium channel KCNH2 (Homo sapiens, UniProt Q12809); test: Inhibition of Kv11.1 channel
[3] = target: T1, Hepatocyte growth factor receptor (Homo sapiens, UniProt P08581)
[4] = Plasma clearance in rat at 2 mg/kg, iv and 4 mg/kg, po; type: ADME, organism-based
[5] = Half life in rat at 2 mg/kg, iv and 4 mg/kg, po; type: ADME, organism-based; conditions: in vivo
[6] = Volume of distribution at steady state in rat at 2 mg/kg, iv and 4 mg/kg, po; type: ADME, organism-based; conditions: in vivo, read-out: Vdss
[7] = Oral bioavailability in rat at 4 mg/kg; type: ADME, organism-based; conditions: in vivo
[8] = target: T1, Hepatocyte growth factor receptor; test: Inhibition of c-MET overexpressed in human GTL-16 cells assessed as phosphorylation at C-terminal Y1349 after 2 hrs by Western blot analysis; type: cell-based
[9] = Plasma clearance in rat at 2 mg/kg, iv; type: ADME, organism-based; design: dose 2 mg/kg, route intravenous
[10] = Volume of distribution at steady state in rat at 2 mg/kg, iv; type: ADME, organism-based; design: dose 2 mg/kg, route intravenous; conditions: in vivo, read-out: Vdss
[11] = Half life in rat at 2 mg/kg, iv; type: ADME, organism-based; design: dose 2 mg/kg, route intravenous; conditions: in vivo
[12] = Inhibition of potassium channel IKr
[13] = Plasma clearance in rat at 0.31 mg/kg, iv and 0.62 mg/kg, po; type: ADME, organism-based
[14] = Half life in rat at 0.31 mg/kg, iv and 0.62 mg/kg, po; type: ADME, organism-based; conditions: in vivo
[15] = Oral bioavailability in rat at 0.62 mg/kg; type: ADME, organism-based; conditions: in vivo
[16] = Volume of distribution at steady state in rat at 0.31 mg/kg, iv and 0.62 mg/kg, po; type: ADME, organism-based; conditions: in vivo, read-out: Vdss
[17] = target: Cytochrome P450 2C9 (Homo sapiens, UniProt P11712); test: Inhibition of CYP2C9; type: ADME
[18] = target: Cytochrome P450 2D6 (Homo sapiens, UniProt P10635); test: Inhibition of CYP2D6; type: ADME
[19] = Solubility of the compound at pH 7.4; type: physicochemical; conditions: buffer
[20] = Lipophilicity, log P of the compound; type: physicochemical; conditions: octanol/water
[21] = target: Cytochrome P450 3A4 (Homo sapiens, UniProt P08684); test: Inhibition of CYP3A4; type: ADME
[22] = Oral bioavailability in rat at 1 mg/kg; type: ADME, organism-based; conditions: in vivo
[23] = tested on: Rattus norvegicus; test: Volume of distribution at steady state in rat at 1 mg/kg, iv and po; type: ADME, organism-based; design: dose 1 mg/kg, route oral; conditions: in vivo
[24] = Half life in rat at 1 mg/kg, iv and po; type: ADME, organism-based; design: dose 1 mg/kg, route oral; conditions: in vivo

Structure (SMILES): CN(C)CCCn1cc(-c2cnc3ccc4ccc(NS(=O)(=O)N(C)C)cc4c(=O)c3c2)cn1
IC50 [1]: 1100 nM

Structure (SMILES): CN(C)S(=O)(=O)Nc1ccc2ccc3ncc(-c4cnn(-c5ccccn5)c4)cc3c(=O)c2c1
IC50 [1]: 1300 nM

Structure (SMILES): Cn1cc(-c2cnc3ccc4ccc(NS(N)(=O)=O)cc4c(=O)c3c2)cn1
IC50 [1]: 990 nM
IC50 [2]: 4300 nM

Structure (SMILES): CN(C)S(=O)(=O)Nc1ccc2ccc3ncc(-c4cnn(CC(=O)N5CCOCC5)c4)cc3c(=O)c2c1
IC50 [1]: 1700 nM

IC50 [3]: > 10000 nM
Structure (SMILES): CS(=O)(=O)Nc1ccc2c(=O)c3cc(-c4ccccc4)cnc3ccc2c1

Structure (SMILES): CCN(CC)S(=O)(=O)Nc1ccc2ccc3ncc(-c4cnn(C)c4)cc3c(=O)c2c1
IC50 [1]: 2200 nM

clearance [4]: 33.8 mL/min/kg
half-life [5]: 0.9 h
Vd [6]: 2.5 L/kg
bioavailability [7]: 33%
Structure (SMILES): CNS(=O)(=O)Nc1ccc2ccc3ncc(-c4cnn(C)c4)cc3c(=O)c2c1
IC50 [1]: 750 nM

Structure (SMILES): CCCn1cc(-c2cnc3ccc4ccc(NS(=O)(=O)N(C)C)cc4c(=O)c3c2)cn1
IC50 [1]: 780 nM

Structure (SMILES): CCN1CCC(n2cc(-c3cnc4ccc5ccc(NS(=O)(=O)N(C)C)cc5c(=O)c4c3)cn2)CC1
IC50 [1]: 55 nM

Structure (SMILES): CN(C[C@H]1COCCO1)S(=O)(=O)Nc1ccc2ccc3ncc(-c4cnn(C)c4)cc3c(=O)c2c1
IC50 [1]: 2800 nM
IC50 [8]: 210 nM
IC50 [2]: > 30000 nM
IC50 [3]: 14 nM

Structure (SMILES): CN(C)S(=O)(=O)Nc1ccc2ccc3ncc(-c4cnn(CCF)c4)cc3c(=O)c2c1
IC50 [1]: 610 nM

clearance [9]: 2.9 mL/min/kg
Vd [10]: 0.41 L/kg
half-life [11]: 1.8 h
Structure (SMILES): Cn1cc(-c2cnc3ccc4ccc(NS(=O)(=O)N5CC(F)C5)cc4c(=O)c3c2)cn1
IC50 [1]: 2400 nM

Structure (SMILES): CN(C)S(=O)(=O)Nc1ccc2ccc3ncc(-c4cnn(CC(F)CO)c4)cc3c(=O)c2c1 (racemic)
IC50 [1]: 270 nM

Structure (SMILES): COCC(F)Cn1cc(-c2cnc3ccc4ccc(NS(=O)(=O)N(C)C)cc4c(=O)c3c2)cn1 (racemic)
IC50 [1]: 54 nM

Structure (SMILES): CN(C)S(=O)(=O)Nc1ccc2ccc3ncc(-c4cnn(CCCO)c4)cc3c(=O)c2c1
IC50 [1]: 370 nM

Structure (SMILES): CN(C)S(=O)(=O)Nc1ccc2ccc3ncc(-c4cnn(C)c4)cc3c(=O)c2c1
IC50 [12]: > 30000 nM
IC50 [2]: > 30000 nM

Structure (SMILES): CN(Cc1ccccc1)S(=O)(=O)Nc1ccc2ccc3ncc(-c4cnn(C)c4)cc3c(=O)c2c1
IC50 [1]: 50000 nM
IC50 [2]: > 30000 nM

clearance [4]: 40 mL/min/kg
half-life [5]: 0.5 h
Structure (SMILES): Cn1cc(-c2cnc3ccc4ccc(NS(C)(=O)=O)cc4c(=O)c3c2)cn1
IC50 [1]: 1900 nM
IC50 [12]: 330 nM
IC50 [2]: 10100 nM

Structure (SMILES): Cn1cc(-c2cnc3ccc4ccc(NS(=O)(=O)N5CCOCC5)cc4c(=O)c3c2)cn1
IC50 [1]: 11000 nM

clearance [9]: 39 mL/min/kg
Vd [10]: 2.4 L/kg
half-life [11]: 0.7 h
Structure (SMILES): CN(Cc1cnccn1)S(=O)(=O)Nc1ccc2ccc3ncc(-c4cnn(C)c4)cc3c(=O)c2c1
IC50 [1]: 1100 nM
IC50 [2]: 7100 nM

clearance [13]: 11 mL/min/kg
half-life [14]: 1.2 h
bioavailability [15]: 38%
Vd [16]: 1.1 L/kg
Structure (SMILES): CN([C@H]1CCOC1)S(=O)(=O)Nc1ccc2ccc3ncc(-c4cnn(C)c4)cc3c(=O)c2c1
IC50 [1]: 570 nM
IC50 [2]: > 30000 nM

clearance [4]: 24 mL/min/kg
half-life [5]: 0.5 h
IC50 [17]: > 50000 nM
IC50 [18]: > 50000 nM
solubility [19]: 0.5 µg/mL (≈ 1.33 µM)
logP [20]: 3.15
IC50 [21]: > 50000 nM
bioavailability [7]: 2%
Structure (SMILES): CS(=O)(=O)Nc1ccc2ccc3ncc(-c4ccccc4)cc3c(=O)c2c1
IC50 [1]: > 50000 nM
IC50 [2]: 290 nM

clearance [9]: 10.7 mL/min/kg
Vd [10]: 1.1 L/kg
half-life [11]: 1.3 h
Structure (SMILES): COCCCN(C)S(=O)(=O)Nc1ccc2ccc3ncc(-c4cnn(C)c4)cc3c(=O)c2c1
IC50 [1]: 1500 nM
IC50 [2]: > 30000 nM

IC50 [3]: > 10000 nM
Structure (SMILES): CS(=O)(=O)Nc1ccc2ccc3nccc(Cl)c3c(=O)c2c1

bioavailability [22]: 29%
Vdss [23]: 0.95 L/kg
half-life [24]: 3.3 h
Structure (SMILES): Cn1cc(-c2cnc3ccc4ccc(NS(=O)(=O)N5CCC5)cc4c(=O)c3c2)cn1
IC50 [1]: 1100 nM
